Test results reported in publication PMC6648289 (ACS Omega, 2019).

Tests used:
Experiment in all cases: FLIPR membrane potential
Assay type in all cases: cell-based
Conditions in all cases: concentration used for PAM testing
[1] = target: T1, human α1β2δ GABAA receptor (Homo sapiens, UniProt O14764+P14867+P47870)
T1 sequence (P14867 28-456): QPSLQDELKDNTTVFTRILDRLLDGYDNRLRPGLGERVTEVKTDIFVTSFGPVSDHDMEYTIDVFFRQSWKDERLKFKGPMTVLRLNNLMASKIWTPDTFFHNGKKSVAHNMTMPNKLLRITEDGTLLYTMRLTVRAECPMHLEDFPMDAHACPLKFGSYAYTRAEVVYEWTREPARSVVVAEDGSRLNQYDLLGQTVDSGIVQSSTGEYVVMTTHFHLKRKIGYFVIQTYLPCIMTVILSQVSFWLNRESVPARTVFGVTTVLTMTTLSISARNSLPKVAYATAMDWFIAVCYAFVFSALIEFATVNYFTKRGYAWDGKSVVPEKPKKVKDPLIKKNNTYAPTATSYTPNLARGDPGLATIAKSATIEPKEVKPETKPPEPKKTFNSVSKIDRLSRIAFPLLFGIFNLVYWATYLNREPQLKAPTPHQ
T1 sequence (P47870 25-512 limits assumed): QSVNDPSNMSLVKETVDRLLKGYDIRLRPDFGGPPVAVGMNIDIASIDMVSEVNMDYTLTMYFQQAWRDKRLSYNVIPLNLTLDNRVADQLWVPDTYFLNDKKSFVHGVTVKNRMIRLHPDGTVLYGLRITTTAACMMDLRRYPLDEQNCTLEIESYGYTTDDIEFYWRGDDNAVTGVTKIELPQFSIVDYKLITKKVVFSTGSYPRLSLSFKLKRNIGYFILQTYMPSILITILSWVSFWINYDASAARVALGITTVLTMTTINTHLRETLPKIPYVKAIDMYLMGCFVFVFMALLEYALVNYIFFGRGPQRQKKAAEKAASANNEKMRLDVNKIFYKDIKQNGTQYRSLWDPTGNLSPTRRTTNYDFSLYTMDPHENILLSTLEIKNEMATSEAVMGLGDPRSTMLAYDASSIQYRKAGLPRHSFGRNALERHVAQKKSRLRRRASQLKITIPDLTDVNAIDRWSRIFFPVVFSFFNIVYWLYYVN
T1 sequence (O14764 17-452 limits assumed): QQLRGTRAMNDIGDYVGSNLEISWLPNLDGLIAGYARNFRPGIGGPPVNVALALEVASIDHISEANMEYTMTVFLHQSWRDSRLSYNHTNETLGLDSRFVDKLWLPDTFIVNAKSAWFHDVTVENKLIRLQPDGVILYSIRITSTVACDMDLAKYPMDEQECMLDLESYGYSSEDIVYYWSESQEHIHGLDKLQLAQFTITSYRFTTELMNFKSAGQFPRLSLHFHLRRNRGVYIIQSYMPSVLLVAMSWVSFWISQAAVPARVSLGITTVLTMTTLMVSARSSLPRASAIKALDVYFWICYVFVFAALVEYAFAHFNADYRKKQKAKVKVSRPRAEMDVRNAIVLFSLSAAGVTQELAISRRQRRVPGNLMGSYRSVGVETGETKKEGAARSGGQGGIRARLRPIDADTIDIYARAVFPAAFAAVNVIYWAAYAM

[2] = target: human α4β2δ GABAA receptor (Homo sapiens, UniProt O14764+P47870+P48169)
human α4β2δ GABAA receptor, sequence (P48169 36-554, one chain of several): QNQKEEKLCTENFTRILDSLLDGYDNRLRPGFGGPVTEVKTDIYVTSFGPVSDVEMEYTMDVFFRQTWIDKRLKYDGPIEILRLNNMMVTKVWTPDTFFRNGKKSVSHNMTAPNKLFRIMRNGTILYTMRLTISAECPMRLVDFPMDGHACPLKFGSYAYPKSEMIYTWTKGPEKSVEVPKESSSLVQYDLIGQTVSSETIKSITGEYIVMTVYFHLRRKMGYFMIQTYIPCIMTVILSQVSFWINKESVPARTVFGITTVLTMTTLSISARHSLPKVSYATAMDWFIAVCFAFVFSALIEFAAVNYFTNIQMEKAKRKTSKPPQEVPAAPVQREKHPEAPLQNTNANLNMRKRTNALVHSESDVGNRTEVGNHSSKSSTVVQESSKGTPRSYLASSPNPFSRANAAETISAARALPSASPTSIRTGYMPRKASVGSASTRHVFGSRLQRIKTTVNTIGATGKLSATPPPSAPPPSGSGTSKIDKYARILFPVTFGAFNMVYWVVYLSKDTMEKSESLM

[3] = target: human α6β2δ GABAA receptor (Homo sapiens, UniProt O14764+P47870+Q16445)
human α6β2δ GABAA receptor, sequence (Q16445 20-453, one chain of several): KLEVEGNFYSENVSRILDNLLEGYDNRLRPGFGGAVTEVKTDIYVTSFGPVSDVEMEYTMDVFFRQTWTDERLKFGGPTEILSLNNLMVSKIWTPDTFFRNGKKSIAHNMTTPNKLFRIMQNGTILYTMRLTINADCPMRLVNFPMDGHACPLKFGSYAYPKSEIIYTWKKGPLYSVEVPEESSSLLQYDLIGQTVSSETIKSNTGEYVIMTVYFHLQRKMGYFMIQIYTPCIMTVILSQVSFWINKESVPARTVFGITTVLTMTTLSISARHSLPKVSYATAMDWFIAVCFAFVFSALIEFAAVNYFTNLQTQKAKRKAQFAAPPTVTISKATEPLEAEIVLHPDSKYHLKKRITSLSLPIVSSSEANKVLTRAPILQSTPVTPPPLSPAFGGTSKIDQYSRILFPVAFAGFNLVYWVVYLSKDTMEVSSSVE

[4] = target: human α6β2γ2s GABAA receptor (Homo sapiens, UniProt P18507+P47870+Q16445)
human α6β2γ2s GABAA receptor, sequence (Q16445 20-453, one chain of several): as above
human α6β2γ2s GABAA receptor, sequence (P18507 40-467 isoform P18507-1 limits assumed, one chain of several): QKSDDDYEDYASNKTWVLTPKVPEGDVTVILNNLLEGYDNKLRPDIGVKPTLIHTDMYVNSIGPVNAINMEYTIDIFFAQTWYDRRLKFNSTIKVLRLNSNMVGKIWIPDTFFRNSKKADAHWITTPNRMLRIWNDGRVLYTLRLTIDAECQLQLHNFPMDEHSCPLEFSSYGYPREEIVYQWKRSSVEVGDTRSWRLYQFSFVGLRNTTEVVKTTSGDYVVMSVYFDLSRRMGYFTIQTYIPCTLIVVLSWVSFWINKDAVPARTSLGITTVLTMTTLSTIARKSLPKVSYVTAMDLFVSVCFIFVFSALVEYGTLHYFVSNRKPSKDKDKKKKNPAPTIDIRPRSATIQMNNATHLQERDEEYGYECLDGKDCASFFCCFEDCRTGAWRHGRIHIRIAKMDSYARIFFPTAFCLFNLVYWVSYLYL

- GABA EC20 [1]: 1600 to 2000 nM
- GABA EC20 [2]: 80 nM
- GABA EC20 [3]: 50 nM
- GABA EC20 [4]: 100 to 200 nM
Compound: NCCCC(=O)O [GABA, γ-Aminobutyric acid]
